The target of assay [1] is T1, MAGL (Mus musculus, UniProt O35678).
T1 sequence (O35678 1-303): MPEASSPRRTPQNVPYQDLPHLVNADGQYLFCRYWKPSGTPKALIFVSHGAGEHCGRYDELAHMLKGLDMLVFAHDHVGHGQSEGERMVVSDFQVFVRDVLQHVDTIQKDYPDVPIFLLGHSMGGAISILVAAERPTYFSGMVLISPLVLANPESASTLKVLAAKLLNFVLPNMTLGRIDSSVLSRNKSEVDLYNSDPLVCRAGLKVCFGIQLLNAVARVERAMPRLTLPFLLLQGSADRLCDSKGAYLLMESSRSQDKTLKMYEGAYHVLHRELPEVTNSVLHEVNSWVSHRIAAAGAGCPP
Put plainly: biochemical. Particulars: mouse; in vitro competitive ABPP; read-out: Mouse (IC50 value, nM) MAGL.

The target of assay [2] is T2, FAAH (Mus musculus, UniProt O08914).
T2 sequence (O08914 1-579): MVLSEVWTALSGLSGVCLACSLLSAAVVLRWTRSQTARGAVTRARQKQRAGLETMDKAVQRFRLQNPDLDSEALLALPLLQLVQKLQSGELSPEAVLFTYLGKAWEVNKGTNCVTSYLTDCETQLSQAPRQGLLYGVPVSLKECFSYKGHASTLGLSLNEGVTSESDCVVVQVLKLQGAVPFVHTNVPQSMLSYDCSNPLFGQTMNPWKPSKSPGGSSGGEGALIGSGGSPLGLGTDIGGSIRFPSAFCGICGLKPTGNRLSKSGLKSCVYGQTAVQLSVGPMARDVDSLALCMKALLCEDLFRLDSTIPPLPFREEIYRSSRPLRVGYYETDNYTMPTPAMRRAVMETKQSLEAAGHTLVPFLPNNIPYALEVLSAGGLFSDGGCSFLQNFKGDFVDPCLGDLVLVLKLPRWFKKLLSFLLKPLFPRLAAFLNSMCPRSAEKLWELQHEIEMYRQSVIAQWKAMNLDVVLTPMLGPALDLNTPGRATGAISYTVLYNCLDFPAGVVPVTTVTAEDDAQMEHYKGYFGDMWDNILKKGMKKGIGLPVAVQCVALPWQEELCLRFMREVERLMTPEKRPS
Nature of the assay: biochemical. Particulars: in vitro competitive ABPP.

Assay [3] addresses T1, MAGL. Nature of the assay: In vitro competitive activity-based protein profiling (Table 2, % inhibition at 1 μM). The conditions noted are these: read-out: % Inhibition at 1 μM MAGL. It is filed as biochemical. The procedure: After 30 min, FP—Rh (1.0 μL, 50 μM in DMSO) was added and the mixture was incubated for another 30 min at 37° C. Reactions were quenched with SDS loading buffer (50 μL-4×) and run on SDS-PAGE.
Cell lysates were diluted with mock proteomes for use in competitive ABPP experiments.

Assay [4] addresses T3, ABHD6 (Mus musculus, UniProt Q8R2Y0).
T3 sequence (Q8R2Y0 1-336): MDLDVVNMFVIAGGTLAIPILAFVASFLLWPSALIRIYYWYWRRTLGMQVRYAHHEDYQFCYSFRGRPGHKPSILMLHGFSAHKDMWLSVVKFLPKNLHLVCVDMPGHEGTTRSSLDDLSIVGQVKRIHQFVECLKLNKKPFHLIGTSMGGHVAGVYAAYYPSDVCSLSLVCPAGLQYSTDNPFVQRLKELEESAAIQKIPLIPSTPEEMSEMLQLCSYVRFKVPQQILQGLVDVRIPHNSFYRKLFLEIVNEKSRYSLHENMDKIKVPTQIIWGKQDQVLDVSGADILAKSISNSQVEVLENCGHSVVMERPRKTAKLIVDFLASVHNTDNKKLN
Nature of the assay: biochemical. The conditions noted are these: in vitro competitive ABPP.

Assay [5] has as its target T2, FAAH. Put plainly: In vitro competitive activity-based protein profiling (Table 2, % inhibition at 1 μM). In kind it is biochemical. Particulars: read-out: % Inhibition at 1 μM FAAH.
The target of assay [6] is T3, ABHD6. The assay is described as above. It is filed as biochemical. Particulars: read-out: % Inhibition at 1 μM ABHD6.

The structures appear in SMILES notation.

One may read the IC50 as the midpoint of a concentration-inhibition curve. The inhibition is the drop in the measured response relative to a control, in per cent.

With `CC1COCCN1c1cc(F)ccc1CN1CC2CN(C(=O)OC(C(F)(F)F)C(F)(F)F)CC2C1` (stereo not drawn) [Example 16, 1,1,1,3,3,3-Hexafluoropropan-2-yl 5-[[4-fluoro-2-(3-methylmorpholin-4-yl)phenyl]methyl]-octahydropyrrolo[3,4-c]pyrrole-2-carboxylate], the IC50 in assay [1] is under 100 nM; in assay [2], 1000 to 10000 nM; in assay [4], 1000 to 10000 nM. The inhibition at 1 µM was over 75% in assay [3], under 25% in assay [5] and under 25% in assay [6].
Take `O=C(ON1C(=O)CCC1=O)N1CC2CN(Cc3ccc(N4CCOCC4)cc3Cl)CC2C1` (stereo not drawn) [Example 80, 2,5-Dioxopyrrolidin-1-yl 5-(2-chloro-4-morpholinobenzyl)hexahydropyrrolo[3,4-c]pyrrole-2(1H)-carboxylate]: the IC50 in assay [1] was 100 to 1000 nM; in assay [2], 1000 to 10000 nM; in assay [4], 1000 to 10000 nM. For the same compound, the inhibition at 1 µM in assay [3] is 25 to 75%; in assay [5], 25 to 75%; in assay [6], under 25%.
Consider `CC1COCCN1c1cc(Cl)ccc1CN1CC2CN(C(=O)OC(C(F)(F)F)C(F)(F)F)CC2C1` (stereo not drawn) [Example 20, 1,1,1,3,3,3-Hexafluoropropan-2-yl 5-[[4-chloro-2-(3-methylmorpholin-4-yl)phenyl]methyl]-octahydropyrrolo[3,4-c]pyrrole-2-carboxylate], for which the IC50 in assay [1] is under 100 nM; in assay [2], 1000 to 10000 nM; in assay [4], 1000 to 10000 nM. For the same compound, the inhibition at 1 µM in assay [3] is over 75%; in assay [5] it was under 25%; in assay [6] it was under 25%.
For `Cc1c(CN2CC3CN(C(=O)OC(C(F)(F)F)C(F)(F)F)CC3C2)cccc1N1CCC(F)(F)CC1` (stereo not drawn) [Example 153, 1,1,1,3,3,3-hexafluoropropan-2-yl 5-[[3-(4,4-difluoropiperidin-1-yl)-2-methylphenyl]methyl]-octahydropyrrolo[3,4-c]pyrrole-2-carboxylate], the IC50 was under 100 nM in assay [1], 1000 to 10000 nM in assay [2] and over 10000 nM in assay [4]. The figures for the inhibition at 1 µM in assay [3], in assay [5] and in assay [6] were over 75%, 25 to 75% and under 25%, respectively.
Regarding `Cn1nc(-c2ccccc2)cc1CN1CC2CN(C(=O)OC(C(F)(F)F)C(F)(F)F)CC2C1` (stereo not drawn) [Example 194, 1,1,1,3,3,3-hexafluoropropan-2-yl 5-((1-methyl-3-phenyl-1H-pyrazol-5-yl)methyl)hexahydropyrrolo[3,4-c]pyrrole-2(1H)-carboxylate], the half-maximal inhibitory concentration (IC50) was under 100 nM in assay [1], 1000 to 10000 nM in assay [2] and 1000 to 10000 nM in assay [4]. For the same compound, the inhibition at 1 µM in assay [3] was over 75%; in assay [5] it was 25 to 75%; in assay [6], under 25%.
Take `CCn1cc(CN2CC3CN(C(=O)OC(C(F)(F)F)C(F)(F)F)CC3C2)c(C(=O)NC2CC2)n1` (stereo not drawn) [Example 77, 1,1,1,3,3,3-Hexafluoropropan-2-yl 5-((3-(cyclopropylcarbamoyl)-1-ethyl-1H-pyrazol-4-yl)methyl)hexahydropyrrolo[3,4-c]pyrrole-2(1H)-carboxylate]: the IC50 in assay [1] was 100 to 1000 nM; in assay [2] it was over 10000 nM; in assay [4] it was 1000 to 10000 nM. The inhibition at 1 µM in assay [3] is over 75%; in assay [5], under 25%; in assay [6] it was under 25%.
On to `O=C(OC(C(F)(F)F)C(F)(F)F)N1CC2CN(Cc3cccc(Cl)c3N3C4CCC3COC4)CC2C1` (stereo not drawn) [Example 43, 1,1,1,3,3,3-Hexafluoropropan-2-yl 5-[(3-chloro-2-[3-oxa-8-azabicyclo[3.2.1]octan-8-yl]phenyl)methyl]-octahydropyrrolo[3,4-c]pyrrole-2-carboxylate], for which the figures for the IC50 in assay [1], in assay [2] and in assay [4] were under 100 nM, 1000 to 10000 nM and 1000 to 10000 nM, respectively. In addition, the inhibition at 1 µM in assay [3] is over 75%; in assay [5], under 25%; in assay [6] it was under 25%.
Turning to `O=C(OC(C(F)(F)F)C(F)(F)F)N1CC2CN(Cc3ccc(C(F)(F)F)cc3N3CC4COCC4C3)CC2C1` (stereo not drawn) [Example 210, 1,1,1,3,3,3-hexafluoropropan-2-yl 5-(2-(tetrahydro-1H-furo[3,4-c]pyrrol-5(3H)-yl)-4-(trifluoromethyl)benzyl)hexahydropyrrolo[3,4-c]pyrrole-2(1H)-carboxylate], the IC50 in assay [1] is under 100 nM; in assay [2], 1000 to 10000 nM; in assay [4] it was 1000 to 10000 nM. For the same compound, the inhibition at 1 µM was over 75% in assay [3], under 25% in assay [5] and under 25% in assay [6].
With `O=C(OC(C(F)(F)F)C(F)(F)F)N1CC2CN(Cc3cccc(Cl)c3N3CCC(F)(F)CC3)CC2C1` (stereo not drawn) [Example 158, 1,1,1,3,3,3-hexafluoropropan-2-yl 5-[[3-chloro-2-(4,4-difluoropiperidin-1-yl)phenyl]methyl]-octahydropyrrolo[3,4-c]pyrrole-2-carboxylate], the IC50 in assay [1] is 100 to 1000 nM; in assay [2], over 10000 nM; in assay [4], 1000 to 10000 nM. Further, the inhibition at 1 µM in assay [3] was over 75%; in assay [5], under 25%; in assay [6], under 25%.
For `CN1CCN(c2c(Cl)cccc2CN2CC3CN(C(=O)OC(C(F)(F)F)C(F)(F)F)CC3C2)CC1` (stereo not drawn) [Example 171, 1,1,1,3,3,3-hexafluoropropan-2-yl 5-[[3-chloro-2-(4-methylpiperazin-1-yl)phenyl]methyl]-octahydropyrrolo[3,4-c]pyrrole-2-carboxylate], the IC50 in assay [1] is 100 to 1000 nM; in assay [2], over 10000 nM; in assay [4], 1000 to 10000 nM. The inhibition at 1 µM in assay [3] was over 75%; in assay [5] it was under 25%; in assay [6], under 25%.
For the compound `O=C(OC(C(F)(F)F)C(F)(F)F)N1CC2CN(Cc3ccc(N4CCOCC4)cc3OC(F)(F)F)CC2C1` (stereo not drawn) [Example 11, 1,1,1,3,3,3-Hexafluoropropan-2-yl 5-[[4-(morpholin-4-yl)-2-(trifluoromethoxy)phenyl]methyl]-octahydropyrrolo[3,4-c]pyrrole-2-carboxylate], the IC50 in assay [1] was under 100 nM; in assay [2], 100 to 1000 nM; in assay [4], 100 to 1000 nM. The inhibition at 1 µM was over 75% in assay [3], over 75% in assay [5] and under 25% in assay [6].
Take `O=C(ON1C(=O)CCC1=O)N1CC2CN(Cc3ccc(N4CCOCC4)cc3C(F)(F)F)CC2C1` (stereo not drawn) [Example 85, 2,5-Dioxopyrrolidin-1-yl 5-[[4-(morpholin-4-yl)-2-(trifluoromethyl)phenyl]methyl]-octahydropyrrolo[3,4-c]pyrrole-2-carboxylate]: the half-maximal inhibitory concentration (IC50) was in the range of 100 to 1000 nM in assay [1], 100 to 1000 nM in assay [2] and 1000 to 10000 nM in assay [4]. Moreover, the inhibition at 1 µM in assay [3] was over 75%; in assay [5], 25 to 75%; in assay [6] it was under 25%.
Consider `O=C(OC(C(F)(F)F)C(F)(F)F)N1CC2CN(Cc3ccc(Cl)cc3N3CCC3)CC2C1` (stereo not drawn) [Example 39, 1,1,1,3,3,3-Hexafluoropropan-2-yl 5-[[2-(azetidin-1-yl)-4-chlorophenyl]methyl]-octahydropyrrolo[3,4-c]pyrrole-2-carboxylate], for which the IC50 in assay [1] is under 100 nM; in assay [2], 100 to 1000 nM; in assay [4] it was 1000 to 10000 nM. For the same compound, the inhibition at 1 µM in assay [3] is over 75%; in assay [5], 25 to 75%; in assay [6], under 25%.

The record behind these values is patent US9828379B2 (priority 2013, dated 2017).
